Experimental data published in patent publication US11780845B2 (Relay Therapeutics, Inc., priority 2019, dated 2023).

Key:
FGFR2 = FGFR2 (Homo sapiens (Human), UniProt P21802); assay: FGFR2 Biochemical Caliper Assay
Description: Compounds of the present invention were also tested in a FGFR2 Biochemical Caliper Assay. Compounds were prepared in 10 mM DMSO solution and serially diluted into 11 concentrations by 3-fold dilution. […] 5 uL of ATP solution (100 uM) was added to start the reaction and the plate was incubated for 90 minutes, then 70 uL of stopping buffer (0.5M EDTA) was added to terminate the reaction. Each well was analyzed using EZ reader.

SNU16 cells = assay: SNU16 Cancer Cell Line Proliferation Assay; type: cell-based; conditions: Homo sapiens; SNU-16 cells
Procedure, shortened: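 SNU16 cells were seeded, held 24 h at 37 degrees, then dosed with an 11-point 3-fold dilution series prepared from a 10 mM DMSO stock. After 96 h incubation, viability was read by CellTiter Glo luminescence.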

FGFR2, sequence (P21802 22-821): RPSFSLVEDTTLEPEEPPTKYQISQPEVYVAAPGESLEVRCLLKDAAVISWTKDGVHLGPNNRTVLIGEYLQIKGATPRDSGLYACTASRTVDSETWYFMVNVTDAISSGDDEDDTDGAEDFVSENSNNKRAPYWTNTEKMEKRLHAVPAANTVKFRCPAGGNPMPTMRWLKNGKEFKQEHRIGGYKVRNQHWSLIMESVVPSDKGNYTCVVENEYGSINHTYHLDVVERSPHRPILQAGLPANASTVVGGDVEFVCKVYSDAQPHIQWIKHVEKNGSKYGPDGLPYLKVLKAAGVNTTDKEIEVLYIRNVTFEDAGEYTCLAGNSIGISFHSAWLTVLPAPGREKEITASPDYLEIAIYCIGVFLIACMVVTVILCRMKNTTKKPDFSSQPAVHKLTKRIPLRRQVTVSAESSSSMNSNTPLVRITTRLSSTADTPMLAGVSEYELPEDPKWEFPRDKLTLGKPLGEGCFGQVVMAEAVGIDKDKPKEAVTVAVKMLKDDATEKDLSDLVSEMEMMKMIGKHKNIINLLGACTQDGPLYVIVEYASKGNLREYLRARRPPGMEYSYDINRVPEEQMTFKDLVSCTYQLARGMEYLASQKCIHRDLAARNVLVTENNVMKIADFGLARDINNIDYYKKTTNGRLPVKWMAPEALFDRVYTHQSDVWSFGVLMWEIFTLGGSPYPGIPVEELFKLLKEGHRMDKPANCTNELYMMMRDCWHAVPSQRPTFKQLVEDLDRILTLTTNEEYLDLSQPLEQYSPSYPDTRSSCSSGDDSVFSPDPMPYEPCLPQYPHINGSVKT

| Structure (SMILES) | IC50 (FGFR2) [nM] | IC50 (SNU16 cells) [nM] |
| --- | --- | --- |
| C=CC(=O)N1CCC(n2cc(-c3c(-c4ccc(Oc5cc(C)ccn5)cc4)c4c(N)ncnc4n3C)cn2)CC1 [Example 631] | 100 to 250 | 100 to 250 |
| C=CC(=O)N1CCC(n2cc(-c3c(-c4ccc(Oc5cccc(C)n5)cc4)c4c(N)ncnc4n3C)c(C)n2)CC1 [Example 632] | < 100 | ≤ 100 |
| C=CC(=O)N1CCC(n2cc(-c3c(-c4ccc(Oc5ncccn5)cc4)c4c(N)ncnc4n3C)cn2)CC1 [Example 633] | 100 to 250 | 100 to 250 |
| C=CC(=O)N1CCC(n2cc(-c3c(-c4ccc(Oc5cccc(F)n5)cc4)c4c(N)ncnc4n3C)cn2)CC1 [Example 634] | < 100 | ≤ 100 |
| CC#CC(=O)N1CCC(n2cc(-c3c(-c4ccc(Oc5cccc(C)n5)cc4)c4c(N)ncnc4n3C)cn2)C1 (stereo not shown) [Example 635] | 100 to 250 | ≤ 100 |
| C=CC(=O)N1CCC(n2cc(-c3c(-c4ccc(Oc5ccc(C)cn5)cc4)c4c(N)ncnc4n3C)cn2)CC1 [Example 636] | 100 to 250 | ≤ 100 |
| C=CC(=O)N1CCC(n2ncc(-c3c(-c4ccc(Oc5cccc(C)n5)cc4)c4c(N)ncnc4n3C)c2C)CC1 [Example 637] | < 100 | ≤ 100 |
| C=CC(=O)N1CCC(n2cc(-c3c(-c4ccc(Oc5ccccn5)cc4)c4c(N)ncnc4n3C)cn2)CC1 [Example 638] | < 100 | ≤ 100 |
| C/C=C/C(=O)N1CC(n2cc(-c3c(-c4ccc(Oc5cccc(C)n5)cc4)c4c(N)ncnc4n3C)cn2)C1 [Example 639] | < 100 | ≤ 100 |
| C/C=C/C(=O)N1CCC(n2cc(-c3c(-c4ccc(Oc5cccc(C)n5)cc4)c4c(N)ncnc4n3C)cn2)C1 (stereo not shown) [Example 640] | < 100 | ≤ 100 |
| C=CC(=O)N1CCC(n2cc(-c3c(-c4ccc(Oc5cccc(C)n5)c(OC)c4)c4c(N)ncnc4n3C)cn2)CC1 [Example 641] | < 100 | ≤ 100 |
| C=CC(=O)N1CCC(n2cc(-c3c(-c4ccc(Oc5cnccn5)cc4)c4c(N)ncnc4n3C)cn2)CC1 [Example 642] | 250 to 1000 | 100 to 250 |
| C=C(CN1CCOCC1)C(=O)N1CCC(n2cc(-c3c(-c4ccc(Oc5cccc(C)n5)cc4)c4c(N)ncnc4n3C)cn2)CC1 [Example 643] | 250 to 1000 | 250 to 1000 |
| CC#CC(=O)N1CCC(n2cc(-c3c(-c4ccc(Oc5cccc(C)n5)cc4)c4c(N)ncnc4n3C)cn2)CC1 [Example 644] | 250 to 1000 | 250 to 1000 |
| C=CC(=O)N1CCC(c2c(-c3ccc(Oc4cccc(C)n4)cc3)c3c(N)ncnc3n2C)C1 (stereo not shown) [Example 645] | < 100 | ≤ 100 |
| Cc1cccc(Oc2ccc(-c3c(-c4cnn(C5CCN(C(=O)/C=C/CN6CCOCC6)CC5)c4)n(C)c4ncnc(N)c34)cc2)n1 [Example 646] | 100 to 250 | 100 to 250 |
| C=CC(=O)N1CCC(c2c(-c3ccc(Oc4cccc(C)n4)cc3)c3c(N)ncnc3n2C)CC1 [Example 647] | < 100 | ≤ 100 |
| C=CS(=O)(=O)N1CCC(n2cc(-c3c(-c4ccc(Oc5cccc(C)n5)cc4)c4c(N)ncnc4n3C)cn2)CC1 [Example 648] | < 100 | 100 to 250 |
| C/C=C/C(=O)N1CCC(n2cc(-c3c(-c4ccc(Oc5cccc(C)n5)cc4)c4c(N)ncnc4n3C)cn2)CC1 [Example 649] | 100 to 250 | 250 to 1000 |
| C=CC(=O)N1CCC(n2cc(-c3c(-c4ccc(Oc5cccc(OC)n5)cc4)c4c(N)ncnc4n3C)cn2)CC1 [Example 650] | < 100 | ≤ 100 |
| C=CC(=O)N1CCC(c2nnc(-c3c(-c4ccc(Oc5cccc(C)n5)cc4)c4c(N)ncnc4n3C)o2)CC1 [Example 651] | 100 to 250 | ≤ 100 |
| C=C(C)C(=O)N1CCC(n2cc(-c3c(-c4ccc(Oc5ccccc5)cc4)c4c(N)ncnc4n3C)cn2)CC1 [Example 652] | 100 to 250 | 1000 to 100000 |
| C=C(C)C(=O)N1CCC(n2cc(-c3c(-c4ccc(OC)cc4)c4c(N)ncnc4n3C)cn2)CC1 [Example 653] | 250 to 1000 | 1000 to 100000 |
